Data as given in patent US11655235B2, “Pyrrolidine and piperidine compounds” (YUHAN CORPORATION, priority 2019, dated 2023).
Like-named read-outs stand apart in the source and are kept apart here.

Experiments:
Format in all cases: biochemical
Recombinant human FAP = target: T1, Recombinant human FAP (Homo sapiens, UniProt Q12884); experiment: FAP inhibition, fluorogenic substrate Z-Gly-Pro-AMC
T1 construct: purchased R&D systems
T1 sequence (Q12884 1-760): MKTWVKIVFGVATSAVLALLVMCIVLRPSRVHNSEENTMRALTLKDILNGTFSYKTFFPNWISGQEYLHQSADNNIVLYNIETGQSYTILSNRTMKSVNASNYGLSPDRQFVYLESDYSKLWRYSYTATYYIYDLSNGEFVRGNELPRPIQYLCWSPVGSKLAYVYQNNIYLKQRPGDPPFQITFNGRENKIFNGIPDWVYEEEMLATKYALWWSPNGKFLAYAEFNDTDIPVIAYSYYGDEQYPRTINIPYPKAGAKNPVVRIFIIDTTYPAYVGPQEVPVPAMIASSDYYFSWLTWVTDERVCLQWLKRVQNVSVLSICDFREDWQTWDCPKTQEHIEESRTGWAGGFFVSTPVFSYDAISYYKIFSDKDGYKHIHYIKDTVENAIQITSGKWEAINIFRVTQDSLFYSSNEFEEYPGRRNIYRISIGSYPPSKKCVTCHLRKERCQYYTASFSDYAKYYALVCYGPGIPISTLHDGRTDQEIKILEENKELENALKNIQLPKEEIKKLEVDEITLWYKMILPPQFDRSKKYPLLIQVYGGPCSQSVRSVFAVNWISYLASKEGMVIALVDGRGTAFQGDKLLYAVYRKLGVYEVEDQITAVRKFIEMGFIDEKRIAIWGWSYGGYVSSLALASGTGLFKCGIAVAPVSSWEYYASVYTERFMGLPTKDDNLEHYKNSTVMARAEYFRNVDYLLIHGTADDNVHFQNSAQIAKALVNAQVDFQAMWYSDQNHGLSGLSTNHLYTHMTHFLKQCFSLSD
Summary of the method: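 Recombinant human FAP, 10 ng per reaction, in 50 mM Tris pH 7.5 with 1 M NaCl and 1 mg/ml BSA at 25° C; substrate Z-Gly-Pro-AMC, ≤0.1% DMSO. AMC fluorescence read at ex 380/em 460 nm; % signal-rate decrease vs no-inhibitor control, 8-point curves fitted to a four-parameter logistic for IC50.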

recombinant human DPP7 = target: T2, recombinant human DPP7 (Homo sapiens, UniProt Q9UHL4); experiment: DPP7 inhibition, fluorogenic substrate Lys-Pro-AMC
T2 construct: purchased R&D Systems
Summary of the method: (§1)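 Enzyme per reaction: 50 ng DPP9, 20 ng DPP8, 10 ng each DPP7 and PREP. Compounds were serially diluted (8 points, up to 0.5% DMSO) and incubated at 25 °C.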

recombinant human DPP8 = target: T3, recombinant human DPP8 (Homo sapiens, UniProt Q6V1X1); experiment: DPP8 inhibition, fluorogenic substrate Z-Ala-Pro-AMC
T3 construct: purchased PBS Bioscience
Description: The compounds according to the present technology were evaluated in terms of the inhibitory effect on the activity of dipeptidyl peptidases including FAP by using a substrate producing fluorescent substances upon enzymatic decomposition. The test was conducted at 25° C. to get a final reaction volume of 100 μL in a 96 black well plate. […] Briefly, the test compounds were dissolved in dimethyl sulfoxide (DMSO) at a concentration of 20 mM and then subjected to serial dilution, thereby creating an 8 point curve. As for the control group, a 6 point curve created by serial dilution of Talabostat in the same buffer solution was used. Fluorescence intensity was measured using a microplate reader (Flexstation3, Molecular Devices) under the wavelength condition exciting at 380 nm and reading the emission at 460 nm. The inhibitory effect of the test compounds was measured as a decrease (%) in the signal rate as compared to the control group without any inhibitor. Data was fixed to a logistic model with four variables and IC50 value was calculated using GraphPad Prism program. As for recombinant human DPP4 (R&D Systems), 25 mM tris (pH 8.0) buffer as a buffer solution and H-Gly-Pro-AMC (Bachem) as a substrate were used. As for recombinant human DPP7 (R&D Systems), 25 mM MES (pH 6.0) buffer as a buffer solution and Lys-Pro-AMC (Bachem) as a substrate were used. As for recombinant human DPP8 (PBS Bioscience), as a buffer solution, a 10 mM tris (pH 7.4) buffer comprising 10 mM of magnesium chloride and 0.05% of Tween 20, and Z-Ala-Pro-AMC (BPS Bioscience) as a substrate were used. As for recombinant human DPP9 (R&D Systems), a 25 mM tris (pH 8.0) buffer as a buffer solution and H-Gly-Pro-AMC (Bachem) as a substrate were used. As for recombinant human PREP (R&D System), as a buffer solution, a 25 mM tris (pH 7.5) buffer comprising 250 mM sodium chloride and 2.5 mM DTT (Dithiolthreitol), and Z-Gly-Pro-AMC (Bachem) as a substrate were used. The evaluation was made by using 10 ng of DPP4, PDD7, and PREP, 20 ng of DPP8, and 50 ng of DPP9 based on the final reaction. In the evaluation of DPP4, the test compounds were subjected to serial dilution in a buffer under the condition containing up to 0.1% of DMSO. In the evaluation of DPP7, DPP8, DPP9, and PREP, the test compounds were subjected to serial dilution in each buffer under the condition containing up to 0.5% of DMSO.

recombinant human DPP9 = target: T4, recombinant human DPP9 (Homo sapiens, UniProt Q86TI2); experiment: DPP9 inhibition, fluorogenic substrate H-Gly-Pro-AMC
T4 construct: purchased R&D Systems
Summary of the method: as §1

recombinant human PREP = target: T5, recombinant human PREP (Homo sapiens, UniProt P48147); experiment: PREP inhibition, fluorogenic substrate Z-Gly-Pro-AMC; conditions: Inhibitory Activity (IC50, nM) PREP
T5 construct: purchased R&D System
T5 sequence (P48147 1-710): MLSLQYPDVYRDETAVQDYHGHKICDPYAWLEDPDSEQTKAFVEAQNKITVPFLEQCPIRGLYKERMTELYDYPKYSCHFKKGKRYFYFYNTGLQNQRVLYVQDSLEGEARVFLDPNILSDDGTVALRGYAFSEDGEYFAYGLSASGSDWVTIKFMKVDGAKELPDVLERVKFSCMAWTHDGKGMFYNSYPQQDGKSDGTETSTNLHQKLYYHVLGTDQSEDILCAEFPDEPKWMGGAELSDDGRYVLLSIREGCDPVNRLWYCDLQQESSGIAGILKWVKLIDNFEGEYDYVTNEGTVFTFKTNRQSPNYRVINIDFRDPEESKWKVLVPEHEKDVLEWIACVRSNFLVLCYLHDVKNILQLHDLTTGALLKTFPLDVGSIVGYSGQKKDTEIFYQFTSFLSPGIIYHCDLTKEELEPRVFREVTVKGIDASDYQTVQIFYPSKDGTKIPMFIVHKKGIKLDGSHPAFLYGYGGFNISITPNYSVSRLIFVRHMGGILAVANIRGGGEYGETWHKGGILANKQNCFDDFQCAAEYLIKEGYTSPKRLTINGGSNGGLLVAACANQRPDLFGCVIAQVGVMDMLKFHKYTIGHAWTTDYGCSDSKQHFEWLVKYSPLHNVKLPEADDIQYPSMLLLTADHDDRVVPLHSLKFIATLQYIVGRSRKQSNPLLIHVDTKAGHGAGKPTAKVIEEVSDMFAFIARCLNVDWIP
Summary of the method: as §1

DPP4 = DPP4 (Homo sapiens, UniProt P27487); experiment: DPP4 inhibition, fluorogenic substrate H-Gly-Pro-AMC; parameters: purchased R&D Systems; conditions: for IC50: 25° C., H-Gly-Pro-AMC substrate; for inhibition at 1 µM: read-out: hDPP4 inhibition % at 1 μM
[1] = 25° C., Z-Gly-Pro-AMC substrate
[2] = 25° C., Z-Ala-Pro-AMC substrate
[3] = 25° C., H-Gly-Pro-AMC substrate

T4 sequence (Q86TI2 whole entry): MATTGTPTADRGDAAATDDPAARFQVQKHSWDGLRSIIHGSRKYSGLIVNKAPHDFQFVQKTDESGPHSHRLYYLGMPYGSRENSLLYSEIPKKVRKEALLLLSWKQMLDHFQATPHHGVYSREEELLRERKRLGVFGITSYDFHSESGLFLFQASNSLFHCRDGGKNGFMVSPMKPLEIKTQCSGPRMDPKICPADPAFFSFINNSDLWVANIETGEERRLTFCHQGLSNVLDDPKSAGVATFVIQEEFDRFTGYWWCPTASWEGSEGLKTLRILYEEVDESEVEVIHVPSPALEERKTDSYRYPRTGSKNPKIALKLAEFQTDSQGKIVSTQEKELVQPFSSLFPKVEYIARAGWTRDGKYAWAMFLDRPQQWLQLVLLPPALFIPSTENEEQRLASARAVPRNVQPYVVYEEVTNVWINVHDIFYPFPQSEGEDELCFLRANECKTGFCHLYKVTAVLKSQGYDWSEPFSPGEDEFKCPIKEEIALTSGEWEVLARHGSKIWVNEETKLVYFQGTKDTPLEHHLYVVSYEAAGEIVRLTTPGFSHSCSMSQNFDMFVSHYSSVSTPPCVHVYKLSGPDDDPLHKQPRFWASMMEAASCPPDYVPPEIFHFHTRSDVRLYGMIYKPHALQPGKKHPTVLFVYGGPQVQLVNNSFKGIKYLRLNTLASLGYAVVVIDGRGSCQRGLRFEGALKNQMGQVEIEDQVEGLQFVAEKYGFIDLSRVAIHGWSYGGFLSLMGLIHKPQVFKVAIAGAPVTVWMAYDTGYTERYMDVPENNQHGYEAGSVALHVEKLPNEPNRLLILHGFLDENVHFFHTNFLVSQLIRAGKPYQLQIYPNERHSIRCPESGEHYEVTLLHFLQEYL
Chain of DPP4 (P27487 whole entry): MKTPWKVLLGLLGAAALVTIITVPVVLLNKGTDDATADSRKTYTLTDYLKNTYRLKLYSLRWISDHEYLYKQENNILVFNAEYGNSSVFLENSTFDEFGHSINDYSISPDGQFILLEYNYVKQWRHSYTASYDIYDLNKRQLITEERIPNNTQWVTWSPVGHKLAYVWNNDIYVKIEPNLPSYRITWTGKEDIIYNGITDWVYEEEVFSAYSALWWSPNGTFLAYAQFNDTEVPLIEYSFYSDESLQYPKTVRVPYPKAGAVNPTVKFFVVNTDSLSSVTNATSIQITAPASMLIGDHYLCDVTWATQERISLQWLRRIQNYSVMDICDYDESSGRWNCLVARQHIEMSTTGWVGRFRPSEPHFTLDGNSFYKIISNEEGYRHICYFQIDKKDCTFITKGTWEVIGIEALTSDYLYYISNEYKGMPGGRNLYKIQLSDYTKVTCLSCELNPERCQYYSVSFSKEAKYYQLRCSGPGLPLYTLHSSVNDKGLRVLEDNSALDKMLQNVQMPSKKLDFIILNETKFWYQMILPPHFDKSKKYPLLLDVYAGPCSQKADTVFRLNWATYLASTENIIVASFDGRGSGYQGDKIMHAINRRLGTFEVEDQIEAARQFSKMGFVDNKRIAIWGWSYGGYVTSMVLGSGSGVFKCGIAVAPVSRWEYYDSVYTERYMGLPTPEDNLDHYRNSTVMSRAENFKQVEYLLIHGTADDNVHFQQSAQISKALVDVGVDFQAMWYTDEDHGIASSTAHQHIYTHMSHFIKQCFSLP
T3 sequence (Q6V1X1 whole entry): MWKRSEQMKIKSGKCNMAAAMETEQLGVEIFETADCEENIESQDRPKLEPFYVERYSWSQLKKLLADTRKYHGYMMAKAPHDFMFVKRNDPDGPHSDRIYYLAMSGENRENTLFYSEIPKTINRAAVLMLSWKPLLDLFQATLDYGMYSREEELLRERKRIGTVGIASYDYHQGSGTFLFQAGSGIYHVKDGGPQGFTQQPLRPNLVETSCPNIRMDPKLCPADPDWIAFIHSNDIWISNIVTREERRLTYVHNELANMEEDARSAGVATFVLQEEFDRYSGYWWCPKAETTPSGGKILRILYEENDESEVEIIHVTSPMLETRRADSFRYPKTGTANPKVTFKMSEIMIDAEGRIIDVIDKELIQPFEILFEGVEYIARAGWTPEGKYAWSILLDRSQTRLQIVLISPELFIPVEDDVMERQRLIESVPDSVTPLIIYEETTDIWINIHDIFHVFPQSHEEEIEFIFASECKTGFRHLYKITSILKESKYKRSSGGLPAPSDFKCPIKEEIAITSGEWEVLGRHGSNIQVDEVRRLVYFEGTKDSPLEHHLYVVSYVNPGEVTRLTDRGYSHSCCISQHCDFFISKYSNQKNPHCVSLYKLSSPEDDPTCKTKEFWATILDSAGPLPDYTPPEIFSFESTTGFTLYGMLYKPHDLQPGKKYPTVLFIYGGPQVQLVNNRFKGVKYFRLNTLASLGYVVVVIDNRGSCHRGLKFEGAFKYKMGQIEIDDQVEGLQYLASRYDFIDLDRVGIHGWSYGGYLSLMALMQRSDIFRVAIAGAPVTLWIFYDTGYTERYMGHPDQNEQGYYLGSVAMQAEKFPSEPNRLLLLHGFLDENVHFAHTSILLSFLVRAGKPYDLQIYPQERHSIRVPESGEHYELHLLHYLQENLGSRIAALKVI

| Structure (SMILES) | IC50 (Recombinant human FAP; [1]) [nM] | IC50 (recombinant human DPP7) [nM] | IC50 (recombinant human DPP8; [2]) [nM] | IC50 (recombinant human DPP9; [3]) [nM] | IC50 (recombinant human PREP; [1]) [nM] | IC50 (DPP4) [nM] | inhibition at 1 µM (DPP4) [%] | IC50 (Recombinant human FAP; recombinant human FAP, substrate Z-Gly-Pro-AMC) [nM] | IC50 (recombinant human DPP7; recombinant human DPP7) [nM] | IC50 (recombinant human DPP8; recombinant human DPP8) [nM] | IC50 (recombinant human DPP9; recombinant human DPP9) [nM] | IC50 (recombinant human PREP; recombinant human PREP) [nM] |
| --- | --- | --- | --- | --- | --- | --- | --- | --- | --- | --- | --- | --- |
| N#C[C@@H]1CC(F)(F)CN1C(=O)CN1CC[C@H](Nc2cnc3ccccc3c2)C1 [Example 6, (S)-4,4-difluoro-1-(2-((S)-3-(quinolin-3-ylamino)pyrrolidin-1-yl)acetyl)pyrrolidine-2-carbonitrile] | 1.83 | 46.2 | 7890 | 5710 | > 100000 | > 1000 | – | – | – | – | – | – |
| N#C[C@@H]1CC(F)(F)CN1C(=O)CN1CC[C@H](Nc2ccnc3ccccc23)C1 [Example 7, (S)-4,4-difluoro-1-(2-((S)-3-(quinolin-4-ylamino)pyrrolidin-1-yl)acetyl)pyrrolidine-2-carbonitrile] | 0.46 | < 30 | 97600 | 12800 | > 100000 | > 1000 | – | – | – | – | – | – |
| N#C[C@@H]1CC(F)(F)CN1C(=O)CN1CC[C@H](Nc2cccc3sccc23)C1 [Example 9, (S)-1-(2-((S)-3-(benzo[b]thiophen-4-ylamino)pyrrolidin-1-yl)acetyl)-4,4-difluoropyrrolidine-2-carbonitrile] | 1.1 | 75.1 | 213 | 12300 | > 100000 | > 1000 | – | – | – | – | – | – |
| N#C[C@@H]1CC(F)(F)CN1C(=O)CN1CC[C@H](Nc2cccc3ccoc23)C1 [Example 11, (S)-1-(2-((S)-3-(benzofuran-7-ylamino)pyrrolidin-1-yl)acetyl)-4,4-difluoropyrrolidine-2-carbonitrile] | 1.3 | 95.6 | 228 | 17100 | > 100000 | > 1000 | – | – | – | – | – | – |
| N#C[C@@H]1CC(F)(F)CN1C(=O)CN1CC[C@H](Nc2cncc3ccoc23)C1 [Example 12, (S)-4,4-difluoro-1-(2-((S)-3-(furo[3,2-c]pyridin-7-ylamino)pyrrolidin-1-yl)acetyl)pyrrolidine-2-carbonitrile] | 0.5 | < 30 | 371 | 17700 | > 100000 | > 1000 | – | – | – | – | – | – |
| N#C[C@@H]1CC(F)(F)CN1C(=O)CN1CC[C@H](Nc2ccccc2-c2ccccc2)C1 [Example 13, (S)-1-(2-((S)-3-([1,1′-biphenyl]-2-ylamino)pyrrolidin-1-yl)acetyl)-4,4-difluoropyrrolidine-2-carbonitrile] | 24.6 | 243 | 163 | 56500 | > 100000 | > 1000 | – | – | – | – | – | – |
| N#C[C@@H]1CC(F)(F)CN1C(=O)CN1CC[C@H](Nc2ccc(-c3ccccc3)cc2)C1 [Example 14, (S)-1-(2-((S)-3-([1,1′-biphenyl]-4-ylamino)pyrrolidin-1-yl)acetyl)-4,4-difluoropyrrolidine-2-carbonitrile] | 18.7 | 126 | 676 | 11100 | > 100000 | > 1000 | – | – | – | – | – | – |

Now from value to compound:

| IC50 (Recombinant human FAP; [1]) [nM] | IC50 (recombinant human DPP7) [nM] | IC50 (recombinant human DPP8; [2]) [nM] | IC50 (recombinant human DPP9; [3]) [nM] | IC50 (recombinant human PREP; [1]) [nM] | IC50 (DPP4) [nM] | inhibition at 1 µM (DPP4) [%] | IC50 (Recombinant human FAP; recombinant human FAP, substrate Z-Gly-Pro-AMC) [nM] | IC50 (recombinant human DPP7; recombinant human DPP7) [nM] | IC50 (recombinant human DPP8; recombinant human DPP8) [nM] | IC50 (recombinant human DPP9; recombinant human DPP9) [nM] | IC50 (recombinant human PREP; recombinant human PREP) [nM] | Structure (SMILES) |
| --- | --- | --- | --- | --- | --- | --- | --- | --- | --- | --- | --- | --- |
| 1.1 | < 30 | 5790 | 488 | > 100000 | > 1000 | – | – | – | – | – | – | N#C[C@@H]1CC(F)(F)CN1C(=O)CN1CC[C@H](Nc2cncc3ccccc23)C1 [Example 8, (S)-4,4-difluoro-1-(2-((S)-3-(isoquinolin-4-ylamino)pyrrolidin-1-yl)acetyl)pyrrolidine-2-carbonitrile] |
| 3.2 | 75 | 143 | 9980 | > 100000 | > 1000 | – | – | – | – | – | – | N#C[C@@H]1CC(F)(F)CN1C(=O)CN1CC[C@H](Nc2cccc3ccsc23)C1 [Example 10, (S)-1-(2-((S)-3-(benzo[b]thiophen-7-ylamino)pyrrolidin-1-yl)acetyl)-4,4-difluoropyrrolidine-2-carbonitrile] |
| 12.3 | 196 | 253 | 48800 | > 100000 | – | 9.7 | – | – | – | – | – | N#C[C@@H]1CC(F)(F)CN1C(=O)CN1CC[C@H](Nc2ccc3ccccc3c2)C1 [Example 15, (S)-4,4-difluoro-1-(2-((S)-3-(naphthalen-2-ylamino)pyrrolidin-1-yl)acetyl)pyrrolidine-2-carbonitrile] |
| 2.6 | 84.7 | 557 | 13700 | > 100000 | – | 11 | – | – | – | – | – | N#C[C@@H]1CC(F)(F)CN1C(=O)CN1CC[C@H](Nc2cccc(-c3ccccc3)c2)C1 [Example 16, (S)-1-(2-((S)-3-([1,1′-biphenyl]-3-ylamino)pyrrolidin-1-yl)acetyl)-4,4-difluoropyrrolidine-2-carbonitrile] |
| – | – | – | – | – | – | – | 2.7 | 314 | ≥ 100000 | 4580 | 409 | N#C[C@@H]1C[C@H](F)CN1C(=O)CN1CCC(Nc2cncc3c(Cl)cccc23)CC1 [Example 361, (2S,4S)-1-[2-[4-[(8-chloro-4-isoquinolyl)amino]-1-piperidyl]acetyl]-4-fluoro-pyrrolidine-2-carbonitrile] |
